In PubChem BioAssay (NCI):
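Briefly, cells in 96-well plates were exposed to five compound concentrations for 48 h, and endpoints were estimated by linear interpolation. The concentration for full growth arrest is given as TGI.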

Legend:
Experiment in all cases: NCI tumour cell line growth inhibition, 48 h
A498 renal = system: A498 renal
A549 NSCLC = system: A549 NSCLC
CCRF-CEM leukemia = system: CCRF-CEM leukemia
COLO 205 colon = system: COLO 205 colon
DLD-1 colon = system: DLD-1 colon
DMS 114 small cell lung = system: DMS 114 small cell lung
DMS 273 small cell lung = system: DMS 273 small cell lung
EKVX NSCLC = system: EKVX NSCLC
HCC-2998 colon = system: HCC-2998 colon
HCT-116 colon = system: HCT-116 colon
HCT-15 colon = system: HCT-15 colon
HL-60(TB) leukemia = system: HL-60(TB) leukemia
HOP-18 NSCLC = system: HOP-18 NSCLC
HOP-62 NSCLC = system: HOP-62 NSCLC
HOP-92 NSCLC = system: HOP-92 NSCLC
HT29 colon = system: HT29 colon
IGROV1 ovarian = system: IGROV1 ovarian
K-562 leukemia = system: K-562 leukemia
KM12 colon = system: KM12 colon
KM20L2 colon = system: KM20L2 colon
LOX IMVI melanoma = system: LOX IMVI melanoma
M19-MEL melanoma = system: M19-MEL melanoma
MALME-3M melanoma = system: MALME-3M melanoma
MCF7 breast = system: MCF7 breast
MOLT-4 leukemia = system: MOLT-4 leukemia
NCI-H226 lung = system: NCI-H226 lung
NCI-H23 lung = system: NCI-H23 lung
NCI-H460 lung = system: NCI-H460 lung
NCI-H522 lung = system: NCI-H522 lung
NCI/ADR-RES ovarian = system: NCI/ADR-RES ovarian
OVCAR-3 ovarian = system: OVCAR-3 ovarian
OVCAR-4 ovarian = system: OVCAR-4 ovarian
OVCAR-5 ovarian = system: OVCAR-5 ovarian
OVCAR-8 ovarian = system: OVCAR-8 ovarian
P388 leukemia = system: P388 leukemia
P388/ADR leukemia = system: P388/ADR leukemia
RPMI-8226 leukemia = system: RPMI-8226 leukemia
RXF 393 renal = system: RXF 393 renal
SF-268 CNS = system: SF-268 CNS
SF-295 CNS = system: SF-295 CNS
SF-539 CNS = system: SF-539 CNS
SK-MEL-2 melanoma = system: SK-MEL-2 melanoma
SK-MEL-28 melanoma = system: SK-MEL-28 melanoma
SK-MEL-5 melanoma = system: SK-MEL-5 melanoma
SK-OV-3 ovarian = system: SK-OV-3 ovarian
SN12C renal = system: SN12C renal
SN12K1 renal = system: SN12K1 renal
SNB-19 CNS = system: SNB-19 CNS
SNB-75 CNS = system: SNB-75 CNS
SNB-78 CNS = system: SNB-78 CNS
SW-620 colon = system: SW-620 colon
U251 CNS = system: U251 CNS
UACC-257 melanoma = system: UACC-257 melanoma
UACC-62 melanoma = system: UACC-62 melanoma
UO-31 renal = system: UO-31 renal
XF 498 CNS = system: XF 498 CNS

Measured: TGI

CN1OC(=O)N(C)C1c1ccccc1 (stereo unspecified)
> 100 µM: all assays above
